# From patent US9593110B2, “Neprilysin inhibitors” (Theravence Biopharma R&D IP, LLC, priority 2014, dated 2017)
# Molecular target: human NEP (Homo sapiens (Human), UniProt P08473)
# Assay: In vitro enzyme inhibition assay at human NEP
# Settings: pKi, recombinant human NEP, fluorogenic peptide substrate, 37° C.
# Experimental: The inhibitory activities of compounds at human and rat neprilysin (EC 3.4.24.11; NEP) and human angiotensin converting enzyme (ACE) were determined using in vitro assays as described below.
# The assays were performed in 384-well white opaque plates at 37° C. using the fluorogenic peptide substrates at a concentration of 10 μM in Assay Buffer (NEP: 50 mM HEPES, pH 7.5, 100 mM NaCl, 0.01% polyethylene glycol sorbitan monolaurate (Tween-20), 10 μM ZnSO4; ACE: 50 mM HEPES, pH 7.5, 100 mM NaCl, 0.01% Tween-20, 1 μM ZnSO4).
# Test compounds were assayed over the range of concentrations from 10 μM to 20 pM. Test compounds were added to the enzymes and incubated for 30 minute at 37° C. prior to initiating the reaction by the addition of substrate.
# Plates were read on a fluorometer with excitation and emission wavelengths set to 320 nm and 405 nm, respectively Inhibition constants were obtained by nonlinear regression of the data using the equation (GraphPad Software, Inc., San Diego, Calif.): v=v0/[1+(I/K′)] where v is the reaction rate, v0 is the uninhibited reaction rate, I is the inhibitor concentration and K′ is the apparent inhibition constant.
# Sequence of human NEP (P08473 52-750): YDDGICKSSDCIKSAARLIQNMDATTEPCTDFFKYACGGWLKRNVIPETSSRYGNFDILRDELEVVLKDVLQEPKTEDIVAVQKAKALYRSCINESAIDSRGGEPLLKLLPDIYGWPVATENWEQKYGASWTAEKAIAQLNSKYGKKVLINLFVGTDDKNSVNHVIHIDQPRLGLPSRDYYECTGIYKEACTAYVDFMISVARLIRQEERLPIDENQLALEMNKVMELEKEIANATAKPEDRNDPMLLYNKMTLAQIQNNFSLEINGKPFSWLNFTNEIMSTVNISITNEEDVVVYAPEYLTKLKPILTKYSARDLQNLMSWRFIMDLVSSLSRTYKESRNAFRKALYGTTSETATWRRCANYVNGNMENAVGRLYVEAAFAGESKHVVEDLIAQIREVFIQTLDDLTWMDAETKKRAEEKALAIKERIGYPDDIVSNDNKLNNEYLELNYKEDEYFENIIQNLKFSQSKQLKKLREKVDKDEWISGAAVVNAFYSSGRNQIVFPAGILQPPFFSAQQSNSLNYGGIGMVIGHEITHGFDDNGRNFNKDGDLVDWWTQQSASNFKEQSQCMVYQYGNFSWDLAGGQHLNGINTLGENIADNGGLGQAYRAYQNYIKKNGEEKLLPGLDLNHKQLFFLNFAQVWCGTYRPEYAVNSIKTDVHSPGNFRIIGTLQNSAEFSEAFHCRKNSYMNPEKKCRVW
row,Ki [nM],Compound
1,1.26 to 3.16,"N[C@@H](C[C@@H](Cc1ccc(-c2cc(Cl)ccc2F)cc1)NC(=O)c1cc(O)no1)C(=O)O [Example 16-27, (2S,4R)-2-Amino-5-(5′-chloro-2′-fluorobiphenyl-4-yl)-4-[(3-hydroxyisoxazole-5-carbonyl)amino]pentanoic acid]"
2,≤ 1,"CC(C)c1coc(C(=O)N[C@H](Cc2ccc(-c3cc(Cl)ccc3F)cc2Cl)C[C@@H](N)C(=O)O)n1 [Example 17, (2R,4R)-2-Amino-5-(3,5′-dichloro-2′-fluorobiphenyl-4-yl)-4-[(4-isopropyloxazole-2-carbonyl)amino]pentanoic Acid]"
3,3.16 to 10,"CC(C)c1coc(C(=O)N[C@H](Cc2ccc(-c3cc(Cl)ccc3F)cc2Cl)C[C@H](N)C(=O)O)n1 [Example 18-1, (2S,4R)-2-Amino-5-(3,5′-dichloro-2′-fluorobiphenyl-4-yl)-4-[(4-isopropyloxazole-2-carbonyl)amino]pentanoic acid]"
4,10 to 31.6,"COCc1cc(C(=O)N[C@H](Cc2ccc(-c3cc(Cl)ccc3F)cc2Cl)C[C@@H](N)C(=O)O)no1 [Example 18-7, (2R,4R)-2-Amino-5-(3,5′-dichloro-2′-fluorobiphenyl-4-yl)-4-[(5-methoxymethylisoxazole-3-carbonyl)amino]pentanoic acid]"
5,3.16 to 10,"N[C@H](C[C@@H](Cc1ccc(-c2cc(Cl)ccc2F)cc1Cl)NC(=O)c1cc(C2CC2)on1)C(=O)O [Example 18-9, (2R,4R)-2-Amino-4-[(5-cyclopropyl-isoxazole-3-carbonyl)-amino]-5-(3,5′-dichloro-2′-fluorobiphenyl-4-yl)pentanoic acid]"
6,1.26 to 3.16,"NC[C@H](C[C@@H](Cc1ccc(-c2cc(Cl)ccc2F)cc1)NC(=O)c1coc(C2CC2)n1)C(=O)O [Example 21-2, (2S,4S)-2-Aminomethyl-5-(5′-chloro-2′-fluorobiphenyl-4-yl)-4-[(2-cyclopropyl-oxazole-4-carbonyl)amino]pentanoic acid]"
7,1.26 to 3.16,"CCOc1nc(C(=O)N[C@H](Cc2ccc(-c3cc(Cl)ccc3F)cc2)C[C@@H](CN)C(=O)O)co1 [Example 21-4, (2S,4S)-2-Aminomethyl-5-(5′-chloro-2′-fluorobiphenyl-4-yl)-4-[(2-ethoxy-oxazole-4-carbonyl)amino]pentanoic acid]"
8,1.26 to 3.16,"NC[C@H](C[C@@H](Cc1ccc(-c2ccccc2)cc1)NC(=O)c1c[nH]nn1)C(=O)O [Example 22, (2S,4S)-2-Aminomethyl-5-biphenyl-4-yl-4-[(1H-[1,2,3]triazole-4-carbonyl)amino]pentanoic Acid]"
9,1.26 to 3.16,"Cc1cnc(C(=O)N[C@H](Cc2ccc(-c3cc(Cl)ccc3F)cc2)C[C@@H](CCN)C(=O)O)o1 [Example 23, (2R,4S)-2-(2-Aminoethyl)-5-(5′-chloro-2′-fluorobiphenyl-4-yl)-4-[(5-methyloxazole-2-carbonyl)amino]pentanoic Acid]"

row,Compound,Ki [nM]
1,"N[C@@H](C[C@@H](Cc1ccc(-c2cc(Cl)ccc2F)cc1)NC(=O)c1nc2cc(Cl)ccn2n1)C(=O)O [Example 16-26, (2S,4R)-2-Amino-5-(5′-chloro-2′-fluorobiphenyl-4-yl)-4-[(7-chloro-[1,2,4]triazolo[1,5-a]pyridine-2-carbonyl)amino]pentanoic acid]",1.26 to 3.16
2,"Cc1cnc(C(=O)N[C@H](Cc2ccc(-c3cc(Cl)ccc3F)cc2Cl)C[C@H](N)C(=O)O)o1 [Example 18-4, (2S,4R)-2-Amino-5-(3,5′-dichloro-2′-fluorobiphenyl-4-yl)-4-[(5-methyloxazole-2-carbonyl)amino]pentanoic acid]",3.16 to 10
3,"CCc1cc(C(=O)N[C@H](Cc2ccc(-c3cc(Cl)ccc3F)cc2Cl)C[C@@H](N)C(=O)O)on1 [Example 18-5, (2R,4R)-2-Amino-5-(3,5′-dichloro-2′-fluorobiphenyl-4-yl)-4-[(3-ethylisoxazole-5-carbonyl)amino]pentanoic acid]",1.26 to 3.16
4,"COc1cnc(C(=O)N[C@H](Cc2ccc(-c3cc(Cl)ccc3F)cc2Cl)C[C@H](N)C(=O)O)o1 [Example 18-12, (2S,4R)-2-Amino-5-(3,5′-dichloro-2′-fluoro-biphenyl-4-yl)-4-[(5-methoxyoxazole-2-carbonyl)amino]pentanoic acid]",3.16 to 10
5,"Cc1nc(C(=O)N[C@H](Cc2ccc(-c3cc(Cl)ccc3F)cc2)C[C@@H](CN)C(=O)O)co1 [Example 21-5, (2S,4S)-2-Aminomethyl-5-(5′-chloro-2′-fluorobiphenyl-4-yl)-4-[(2-methyloxazole-4-carbonyl)amino]pentanoic acid]",1.26 to 3.16
6,"Cc1cc(C(=O)N[C@H](Cc2ccc(-c3cc(Cl)ccc3F)cc2)C[C@@H](CN)C(=O)O)sn1 [Example 21-6, (2S,4S)-2-Aminomethyl-5-(5′-chloro-2′-fluorobiphenyl-4-yl)-4-[(3-methylisothiazole-5-carbonyl)amino]pentanoic acid]",1.26 to 3.16
7,"NC[C@H](C[C@@H](Cc1ccc(-c2cc(Cl)ccc2F)cc1)NC(=O)c1cnsc1)C(=O)O [Example 21-7, (2S,4S)-2-Aminomethyl-5-(5′-chloro-2′-fluorobiphenyl-4-yl)-4-[(isothiazole-4-carbonyl)amino]pentanoic acid]",1.26 to 3.16

# Same assay, conditions: recombinant human NEP, fluorogenic peptide substrate, 37° C.
row,pKi,Compound
1,≧9.0,"CNC(=O)c1cc(C(=O)N[C@H](Cc2ccc(-c3cc(Cl)ccc3F)cc2)C[C@@H](N)C(=O)O)[nH]n1 [Example 16-21, (2R,4R)-2-Amino-5-(5′-chloro-2′-fluorobiphenyl-4-yl)-4-[(5-methylcarbamoyl-2H-pyrazole-3-carbonyl)amino]pentanoic acid]"
2,≧9.0,"N[C@H](C[C@@H](Cc1ccc(-c2cc(Cl)ccc2F)cc1)NC(=O)c1cc(O)no1)C(=O)O [Example 16-28, (2R,4R)-2-Amino-5-(5′-chloro-2′-fluorobiphenyl-4-yl)-4-[(3-hydroxyisoxazole-5-carbonyl)amino]pentanoic acid]"
3,≧9.0,"N[C@H](C[C@@H](Cc1ccc(-c2cc(Cl)ccc2F)cc1)NC(=O)c1ncccn1)C(=O)O [Example 16-29, (2R,4R)-2-Amino-5-(5′-chloro-2′-fluorobiphenyl-4-yl)-4-[(pyrimidine-2-carbonyl)-amino]pentanoic acid]"
4,≧9.0,"N[C@H](C[C@@H](Cc1ccc(-c2cc(Cl)ccc2F)cc1)NC(=O)c1coc(=O)[nH]1)C(=O)O [Example 16-31, (2R,4R)-2-Amino-5-(5′-chloro-2′-fluorobiphenyl-4-yl)-4-[(2-oxo-2,3-dihydro-oxazole-4-carbonyl)amino]pentanoic acid]"
5,≧9.0,"N[C@H](C[C@@H](Cc1ccc(-c2cc(Cl)ccc2F)cc1)NC(=O)c1cc(-c2cnccn2)n[nH]1)C(=O)O [Example 16-33, (2R,4R)-2-Amino-5-(5′-chloro-2′-fluorobiphenyl-4-yl)-4-[(5-pyrazin-2-yl-2H-pyrazole-3-carbonyl)amino]pentanoic acid]"
6,≧9.0,"N[C@H](C[C@@H](Cc1ccc(-c2cc(Cl)ccc2F)cc1)NC(=O)c1nn(-c2ccccc2)c(=O)[nH]1)C(=O)O [Example 16-35, (2R,4R)-2-Amino-5-(5′-chloro-2′-fluorobiphenyl-4-yl)-4-[(5-oxo-1-phenyl-4,5-dihydro-1H-[1,2,4]triazole-3-carbonyl)amino]p entanoic acid]"
7,≧9.0,"CCCc1nc(C(=O)N[C@H](Cc2ccc(-c3cc(Cl)ccc3F)cc2Cl)C[C@@H](N)C(=O)O)co1 [Example 18-2, (2R,4R)-2-Amino-5-(3,5′-dichloro-2′-fluorobiphenyl-4-yl)-4-[(2-propyloxazole-4-carbonyl)amino]pentanoic acid]"
8,≧9.0,"COCc1cc(C(=O)N[C@H](Cc2ccc(-c3cc(Cl)ccc3F)cc2Cl)C[C@H](N)C(=O)O)no1 [Example 18-8, (2S,4R)-2-Amino-5-(3,5′-dichloro-2′-fluorobiphenyl-4-yl)-4-[(5-methoxymethylisoxazole-3-carbonyl)amino]pentanoic acid]"
9,≧9.0,"N[C@@H](C[C@@H](Cc1ccc(-c2cc(Cl)ccc2F)cc1Cl)NC(=O)c1cc(C2CC2)on1)C(=O)O [Example 18-10, (2S,4R)-2-Amino-4-[(5-cyclopropyl-isoxazole-3-carbonyl)-amino]-5-(3,5′-dichloro-2′-fluorobiphenyl-4-yl)pentanoic acid]"
10,≧9.0,"NC[C@H](C[C@@H](Cc1ccc(-c2cc(Cl)ccc2F)cc1)NC(=O)c1c[nH]nn1)C(=O)O [Example 20, (2S,4S)-2-Aminomethyl-5-(5′-chloro-2′-fluorobiphenyl-4-yl)-4-[(1H-[1,2,3]triazole-4-carbonyl)amino]pentanoic Acid]"
11,≧9.0,"Cc1cnc(C(=O)N[C@H](Cc2ccc(-c3cc(Cl)ccc3F)cc2)C[C@@H](CN)C(=O)O)o1 [Example 21-3, (2S,4S)-2-Aminomethyl-5-(5′-chloro-2′-fluorobiphenyl-4-yl)-4-[(5-methyl-oxazole-2-carbonyl)amino]pentanoic acid]"

row,Compound,pKi
1,"N[C@H](C[C@@H](Cc1ccc(-c2cc(Cl)ccc2F)cc1)NC(=O)c1nc2cc(Cl)ccn2n1)C(=O)O [Example 16-25, (2R,4R)-2-Amino-5-(5′-chloro-2′-fluorobiphenyl-4-yl)-4-[(7-chloro-[1,2,4]triazolo[1,5-a]pyridine-2-carbonyl)amino]pentanoic acid]",≧9.0
2,"Cc1cnc(C(=O)N[C@H](Cc2ccc(-c3cc(Cl)ccc3F)cc2Cl)C[C@@H](N)C(=O)O)o1 [Example 18-3, (2R,4R)-2-Amino-5-(3,5′-dichloro-2′-fluorobiphenyl-4-yl)-4-[(5-methyloxazole-2-carbonyl)amino]pentanoic acid]",≧9.0
3,"CCc1cc(C(=O)N[C@H](Cc2ccc(-c3cc(Cl)ccc3F)cc2Cl)C[C@H](N)C(=O)O)on1 [Example 18-6, (2S,4R)-2-Amino-5-(3,5′-dichloro-2′-fluorobiphenyl-4-yl)-4-[(3-ethylisoxazole-5-carbonyl)amino]pentanoic acid]",≧9.0
4,"COc1cnc(C(=O)N[C@H](Cc2ccc(-c3cc(Cl)ccc3F)cc2Cl)C[C@@H](N)C(=O)O)o1 [Example 18-11, (2R,4R)-2-Amino-5-(3,5′-dichloro-2′-fluoro-biphenyl-4-yl)-4-[(5-methoxyoxazole-2-carbonyl)amino]pentanoic acid]",≧9.0
